This is an account of results in patent US10034893B2, “5, 6-D2 uridine nucleoside/tide derivatives” (priority 2013, dated 2018).

In the experiment the test system is HCV 1a genotype replicon (Huh-1a7 cell line, strain H77). The experiment is described as follows: HCV Replicon Assay qRT-PCR, genotype 1a. It is filed as cell-based. Conditions: Hepatitis C virus, read-out: 1a EC50. The text has this:
HCV replicon cell lines (kindly provided by R. Bartenschlager) isolated from colonies as described by Lohman et al. (Lohman et al. (1999) Science 285: 110-113, expressly incorporated by reference in its entirety) and used for all experiments. One of the HCV replicon cell lines (strain Conl, genotype 1b) has the nucleic acid sequence set forth in EMBL Accession No.: AJ242651, the coding sequence of which is from nucleotides 1801 to 8406. Another replicon cell line (strain H77, genotype 1a) was constructed as described by Yi et. al. (Yi et. al. (2004) Journal of Virology 78(15):7904-15). […]
EC50 values of single agent compounds were determined by HCV RNA detection using quantitative RT-PCR, according to the manufacturer's instructions, with a TAQMAN® One-Step RT-PCR Master Mix Reagents Kit (Cat#AB 4309169, Applied Biosystems) on an ABI Model 7500 thermocycler. EC50 values of combinations are similarly determined by HCV RNA detection using quantitative RT-PCR. The TAQMAN primers to use for detecting and quantifying HCV RNA obtained from Integrated DNA Technologies. HCV RNA is normalized to GAPDH RNA levels in drug-treated cells, which is detected and quantified using the Human GAPDH Endogenous Control Mix (Applied Biosystems, AB 4310884E). […] Chemical agent cytotoxicity is evaluated using an MTS assay according to the manufacturer's directions (Promega). […]

Molecules are shown by their SMILES.

In the case of `[2H]c1cn([C@@H]2O[C@H](CO[P@@](=O)(N[C@@H](C)C(=O)OC(C)C)Oc3ccccc3)C(O)C2(C)F)c(=O)[nH]c1=O` (stereo partly shown) [Example 1], the EC50 was 100 to 1000 nM.

Broadly, the EC50 is the concentration needed to bring the measured effect to its halfway point.
